Assays:
Type in all cases: binding
Conditions in all cases: Compound Concentration 10 µM
panel of 442 kinases [1] = target: T1, panel of 442 kinases (Homo sapiens, UniProt P20794)
T1 construct: purchased KINOMEscan
T1 sequence (P20794 1-623): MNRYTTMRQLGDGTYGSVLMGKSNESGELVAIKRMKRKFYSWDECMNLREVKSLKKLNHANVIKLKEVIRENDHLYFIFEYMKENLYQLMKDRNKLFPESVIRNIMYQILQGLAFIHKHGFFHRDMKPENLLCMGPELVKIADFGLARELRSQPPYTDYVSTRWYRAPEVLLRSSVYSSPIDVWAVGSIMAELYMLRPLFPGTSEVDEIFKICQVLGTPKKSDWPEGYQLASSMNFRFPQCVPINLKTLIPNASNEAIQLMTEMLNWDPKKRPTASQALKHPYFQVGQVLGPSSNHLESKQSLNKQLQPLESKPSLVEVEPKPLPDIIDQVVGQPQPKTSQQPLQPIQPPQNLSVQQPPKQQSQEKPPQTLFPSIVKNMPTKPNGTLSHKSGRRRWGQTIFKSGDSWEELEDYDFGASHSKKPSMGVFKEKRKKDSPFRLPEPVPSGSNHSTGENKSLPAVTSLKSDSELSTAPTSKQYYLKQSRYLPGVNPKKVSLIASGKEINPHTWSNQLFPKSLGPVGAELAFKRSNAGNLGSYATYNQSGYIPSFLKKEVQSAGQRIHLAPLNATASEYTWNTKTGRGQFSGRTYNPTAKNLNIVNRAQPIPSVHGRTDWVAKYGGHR
Excerpt: (§1) We assessed the selectivity of members of this scaffold using the KINOMEscan methodology across a near comprehensive panel of 442 kinases [[18,27]].

panel of 442 kinases [2] = target: T2, panel of 442 kinases (Homo sapiens, UniProt Q16816)
T2 construct: purchased KINOMEscan
T2 sequence (Q16816 whole entry): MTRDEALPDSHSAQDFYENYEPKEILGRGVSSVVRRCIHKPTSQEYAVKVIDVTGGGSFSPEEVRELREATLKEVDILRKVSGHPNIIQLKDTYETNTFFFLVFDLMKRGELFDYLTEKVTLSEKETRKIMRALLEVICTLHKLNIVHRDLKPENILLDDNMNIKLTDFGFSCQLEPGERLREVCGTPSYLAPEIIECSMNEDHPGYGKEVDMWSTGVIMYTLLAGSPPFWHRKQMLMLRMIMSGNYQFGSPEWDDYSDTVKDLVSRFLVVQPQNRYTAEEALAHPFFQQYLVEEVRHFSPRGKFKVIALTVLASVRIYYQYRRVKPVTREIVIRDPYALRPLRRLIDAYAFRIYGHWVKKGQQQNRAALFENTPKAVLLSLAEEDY
Excerpt: as §1

panel of 442 kinases [3] = target: T3, panel of 442 kinases (Homo sapiens, UniProt Q13464)
T3 construct: purchased KINOMEscan
T3 sequence (Q13464 whole entry): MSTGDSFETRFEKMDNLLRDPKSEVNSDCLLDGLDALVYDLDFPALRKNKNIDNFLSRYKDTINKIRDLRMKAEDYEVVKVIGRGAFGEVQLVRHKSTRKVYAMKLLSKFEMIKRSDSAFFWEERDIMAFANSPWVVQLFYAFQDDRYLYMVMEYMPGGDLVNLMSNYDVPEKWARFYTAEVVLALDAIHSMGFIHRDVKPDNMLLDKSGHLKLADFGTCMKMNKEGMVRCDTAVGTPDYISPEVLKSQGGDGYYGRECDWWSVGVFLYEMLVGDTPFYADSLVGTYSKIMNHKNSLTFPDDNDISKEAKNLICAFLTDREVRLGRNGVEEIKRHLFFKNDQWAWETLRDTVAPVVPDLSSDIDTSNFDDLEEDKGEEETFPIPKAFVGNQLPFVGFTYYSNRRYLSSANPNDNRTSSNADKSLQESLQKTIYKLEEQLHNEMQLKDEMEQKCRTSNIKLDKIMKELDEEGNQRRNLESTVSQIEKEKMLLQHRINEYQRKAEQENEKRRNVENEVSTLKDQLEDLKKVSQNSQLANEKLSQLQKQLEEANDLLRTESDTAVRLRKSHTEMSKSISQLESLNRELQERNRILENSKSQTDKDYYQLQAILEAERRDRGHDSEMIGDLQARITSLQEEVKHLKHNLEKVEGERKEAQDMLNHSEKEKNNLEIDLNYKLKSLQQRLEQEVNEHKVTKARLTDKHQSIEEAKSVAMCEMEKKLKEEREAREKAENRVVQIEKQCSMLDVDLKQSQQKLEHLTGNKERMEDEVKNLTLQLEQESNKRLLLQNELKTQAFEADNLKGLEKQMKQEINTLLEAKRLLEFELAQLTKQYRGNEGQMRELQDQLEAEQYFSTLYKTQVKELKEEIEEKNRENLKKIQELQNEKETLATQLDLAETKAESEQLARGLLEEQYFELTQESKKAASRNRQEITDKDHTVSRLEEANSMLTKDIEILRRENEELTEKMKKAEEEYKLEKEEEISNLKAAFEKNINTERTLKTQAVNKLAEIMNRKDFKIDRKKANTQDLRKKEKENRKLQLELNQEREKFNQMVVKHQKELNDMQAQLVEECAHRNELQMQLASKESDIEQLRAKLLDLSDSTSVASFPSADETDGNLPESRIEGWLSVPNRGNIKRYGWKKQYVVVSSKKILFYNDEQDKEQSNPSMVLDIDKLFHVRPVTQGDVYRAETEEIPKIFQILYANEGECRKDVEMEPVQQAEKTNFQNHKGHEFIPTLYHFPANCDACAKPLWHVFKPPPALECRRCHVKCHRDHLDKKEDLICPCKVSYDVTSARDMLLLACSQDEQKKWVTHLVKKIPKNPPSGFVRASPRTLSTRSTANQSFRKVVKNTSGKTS
Excerpt: as §1

SMILES	KINOMEscan: MAK (panel of 442 kinases [1])	KINOMEscan: PHKG1 (panel of 442 kinases [2])	KINOMEscan: ROCK1 (panel of 442 kinases [3])
CCOc1cc(C(=O)N2CCC(N3CCN(C)CC3)CC2)ccc1Nc1ncc2c(n1)N(C1CCCC1)c1ccccc1C(=O)N2C [Compound 26]	100	100	77
COc1cc(C(=O)N2CCC(N3CCN(C)CC3)CC2)ccc1Nc1ncc2c(n1)N(C1CCCC1)c1ccccc1C(=O)N2C [Compound 25, 11-cyclopentyl-2-((2-methoxy-4-(4-(4-methylpiperazin-1-yl)piperidine-1-carbonyl)phenyl)amino)-5-methyl-5H-benzo[e]pyrimido[5,4-b][1,4]diazepin-6(11H)-one]	100	100	74
COc1cc(C(=O)N2CCC(N3CCN(C)CC3)CC2)ccc1Nc1ncc2c(n1)N1CCc3cccc(c31)C(=O)N2C [Compound 24]	100	75	64
COc1cc(C(=O)N2CCC(N3CCN(C)CC3)CC2)ccc1Nc1ncc2c(n1)N(C)c1ccccc1C(=O)N2C [15 (LRRK2-IN-1)]	72	54	100
